Here are results for 17 compounds from patent publication US11753407B2, “Compounds for treating spinal muscular atrophy” (PTC Therapeutics, Inc., priority 2012, dated 2023).

In data set [1] the test system is SMN2 minigene mRNA (SMN2-A minigene) in HEK293H cells. In words: SMN2 minigene mRNA splicing RT-qPCR assay in cultured cells. In kind it is cell-based, human. The note with it: Homo sapiens, HEK293-H; concentration increasing full length SMN2 mRNA 1.5-fold relative to vehicle-treated cells; HEK293H cells with SMN2-A minigene, 24 hours, 7-point concentration data; read-out: EC1.5x for production of full length SMN2 mRNA. An outline of the steps:
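Read-out: minigene-specific full-length (exon 7-included) SMN2 mRNA by one-step multiplex RT-qPCR, normalized to GAPDH and divided by vehicle-treated level. Stable SMN2-A minigene HEK293H cells, 24 h compound exposure, 7 concentrations in duplicate. EC1.5× = concentration raising FL mRNA 1.5-fold.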

Data set [2] has as its system Smn protein in SMA patient fibroblast cells (GM03813). In words: Smn protein assay in cultured cells (SMN HTRF). In kind it is cell-based, human. The note with it: SMA patient fibroblast cells, 48 hours; for maximum fold (Fold) increase of Smn protein: 7-point concentration data, fold relative to vehicle control; for EC1.5x for Smn protein expression: 7-point concentration curve, SMN HTRF, concentration producing 1.5 times Smn protein vs DMSO vehicle control. Summed up: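 Read-out: HTRF 665/620 nm ratio, blank-subtracted as ΔF, then expressed as fold over DMSO vehicle. Fibroblasts from SMA patients were exposed to compounds for 48 h (7 points, 3.16-fold steps, triplicates). Values are EC1.5× and maximum fold Smn increase.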

For the compound `Cc1ccc(-c2cc(=O)n3cc(N4CCN[C@@H](C)C4)ccc3n2)cc1F` [Compound 158, 2-(3-fluoro-4-methylphenyl)-7-[(3S)-3-methylpiperazin-1-yl]-4H-pyrido[1,2-a]pyrimidin-4-one], the melting point was in the range of 175 to 178 °C. Further, the EC (1.5-fold increase) in data set [1] lay within 1 to 3 µM. Besides, the “maximum fold (Fold) increase of Smn protein” value (from here on “maximum fold (Fold) increase”) in data set [2] is given as “* (A maximum fold increase of ≤1.2 is indicated by one star (*))”.
Regarding `CCc1cc(-c2cc(=O)n3cc(N4CCN(C)[C@H](C)C4)ccc3n2)cn2cc(C)nc12` [Compound 700, 7-[(3R)-3,4-dimethylpiperazin-1-yl]-2-(8-ethyl-2-methylimidazo[1,2-a]pyridin-6-yl)-4H-pyrido[1,2-a]pyrimidin-4-one], the melting point fell in the range of 217 to 220 °C. Further, the EC (1.5-fold increase) in data set [1] was below 0.1 µM. Moreover, in data set [2], the “EC1.5x for Smn protein expression” value is listed as “**** (an EC1.5x≤0.3 μM is indicated by four stars (****))” and the “maximum fold (Fold) increase” value is reported as “***** (a fold increase >1.65 is indicated by five stars (*****))”.
Turning to `Cc1nc2cc(-c3cc(=O)n4cc(N5CCCNCC5)ccc4n3)ccc2s1` [Compound 161, 7-(1,4-diazepan-1-yl)-2-(2-methyl-1,3-benzothiazol-5-yl)-4H-pyrido[1,2-a]pyrimidin-4-one], the melting point was in the range of 208 to 212 °C. The EC (1.5-fold increase) in data set [1] fell in the range of 0.3 to 1 µM. In data set [2], the “EC1.5x for Smn protein expression” value is “** (an EC1.5× between >1 μM and ≤3 μM is indicated by two stars (**))”; the “maximum fold (Fold) increase” value was “*** (a fold increase between >1.35 and ≤1.5 is indicated by three stars (***))”.
`O=c1cc(-c2ccc(F)cc2)nc2ccc(N3CCNCC3)cn12` [Compound 46, 2-(4-fluorophenyl)-7-(piperazin-1-yl)-4H-pyrido[1,2-a]pyrimidin-4-one] gave a melting point of 214 to 218 °C. In addition, the EC (1.5-fold increase) in data set [1] was 1 to 3 µM. Also, the “maximum fold (Fold) increase” value in data set [2] is “*** (a fold increase between >1.35 and ≤1.5 is indicated by three stars (***))”.
Turning to `Cc1cn2nc(-c3cc(=O)n4cc(C5=CCNCC5)ccc4n3)cc2cn1` [Compound 473, 2-(6-methylpyrazolo[1,5-a]pyrazin-2-yl)-7-(1,2,3,6-tetrahydropyridin-4-yl)-4H-pyrido[1,2-a]pyrimidin-4-one], the melting point is 260 to 265 °C. Besides, the EC (1.5-fold increase) in data set [1] was below 0.1 µM. In data set [2], the “EC1.5x for Smn protein expression” value is on record as “**** (an EC1.5x≤0.3 μM is indicated by four stars (****))” and the “maximum fold (Fold) increase” value is “***** (a fold increase >1.65 is indicated by five stars (*****))”.
In the case of `CCc1cc(-c2cc(=O)n3cc(N4CCN[C@@H](C)C4)ccc3n2)cn2cc(C)nc12` [Compound 639, 2-(8-ethyl-2-methylimidazo[1,2-a]pyridin-6-yl)-7-[(3S)-3-methylpiperazin-1-yl]-4H-pyrido[1,2-a]pyrimidin-4-one], the melting point was 232 to 236 °C. Moreover, the EC (1.5-fold increase) in data set [1] is below 0.1 µM. Moreover, in data set [2], the “EC1.5x for Smn protein expression” value is “**** (an EC1.5x≤0.3 μM is indicated by four stars (****))” and the “maximum fold (Fold) increase” value is “***** (a fold increase >1.65 is indicated by five stars (*****))”.
Take `C[C@H]1CN(c2ccc3nc(-c4cccc(N(C)C)c4)cc(=O)n3c2)CCN1` [Compound 58, 2-[3-(dimethylamino)phenyl]-7-[(3S)-3-methylpiperazin-1-yl]-4H-pyrido[1,2-a]pyrimidin-4-one]: the melting point lay within 144 to 146 °C. In data set [1], the EC (1.5-fold increase) fell in the range of 3 to 30 µM. In data set [2], the “maximum fold (Fold) increase” value was “* (A maximum fold increase of ≤1.2 is indicated by one star (*))”.
For `CCN1C[C@@H]2C[C@H]1CN2c1ccc2nc(-c3cc4c(C)nc(C)cn4n3)cc(=O)n2c1` [Compound 401, 2-(4,6-dimethylpyrazolo[1,5-a]pyrazin-2-yl)-7-[(1S,4S)-5-ethyl-2,5-diazabicyclo[2.2.1]hept-2-yl]-4H-pyrido[1,2-a]pyrimidin-4-one], the melting point was 175 to 177 °C. For the same compound, in data set [1], the EC (1.5-fold increase) was 0.1 to 0.3 µM. In data set [2], the “EC1.5x for Smn protein expression” value is “*** (an EC1.5× between >0.3 μM and ≤1 μM is indicated by three stars (***))”; the “maximum fold (Fold) increase” value was “***** (a fold increase >1.65 is indicated by five stars (*****))”.
For `Cc1cn2cc(-c3cc(=O)n4cc(C5=CCN(C)CC5)ccc4n3)ccc2n1` [Compound 430, 2-(2-methylimidazo[1,2-a]pyridin-6-yl)-7-(1-methyl-1,2,3,6-tetrahydropyridin-4-yl)-4H-pyrido[1,2-a]pyrimidin-4-one], the melting point was in the range of 137 to 140 °C. Further, the EC (1.5-fold increase) in data set [1] was below 0.1 µM. For the same compound, in data set [2], the “EC1.5x for Smn protein expression” value was “**** (an EC1.5x≤0.3 μM is indicated by four stars (****))”; the “maximum fold (Fold) increase” value is “**** (a fold increase between >1.5 and ≤1.65 is indicated by four stars (****))”.
`CCc1nc(C)cn2nc(-c3cc(=O)n4cc(C5CCN(CCCF)CC5)ccc4n3)cc12` [Compound 669, 2-(4-ethyl-6-methylpyrazolo[1,5-a]pyrazin-2-yl)-7-[1-(3-fluoropropyl)piperidin-4-yl]-4H-pyrido[1,2-a]pyrimidin-4-one] yielded a melting point of 216 to 218 °C. The EC (1.5-fold increase) in data set [1] was below 0.1 µM. Also, in data set [2], the “EC1.5x for Smn protein expression” value is “**** (an EC1.5x≤0.3 μM is indicated by four stars (****))” and the “maximum fold (Fold) increase” value is given as “***** (a fold increase >1.65 is indicated by five stars (*****))”.
Taken in the same sequence, the figures for `Cc1cn2cc(-c3cc(=O)n4cc(N5CCN(C)[C@@H](C)C5)ccc4n3)cc(Cl)c2n1` [Compound 331, 2-(8-chloro-2-methylimidazo[1,2-a]pyridin-6-yl)-7-[(3S)-3,4-dimethylpiperazin-1-yl]-4H-pyrido[1,2-a]pyrimidin-4-one] were 258 to 262 °C, below 0.1 µM, “**** (an EC1.5x≤0.3 μM is indicated by four stars (****))” and “***** (a fold increase >1.65 is indicated by five stars (*****))”.
Taken in the same sequence, the figures for `CCN1CC=C(c2ccc3nc(-c4cc(F)c5nc(C)oc5c4)cc(=O)n3c2)CC1` [Compound 318, 7-(1-ethyl-1,2,3,6-tetrahydropyridin-4-yl)-2-(4-fluoro-2-methyl-1,3-benzoxazol-6-yl)-4H-pyrido[1,2-a]pyrimidin-4-one] were 151 to 154 °C, below 0.1 µM, “**** (an EC1.5x≤0.3 μM is indicated by four stars (****))” and “***** (a fold increase >1.65 is indicated by five stars (*****))”.
In the case of `C[C@H]1CN(c2ccc3nc(-c4ccc(O)c(OC(F)(F)F)c4)cc(=O)n3c2)CCN1` [Compound 84, 2-[4-hydroxy-3-(trifluoromethoxy)phenyl]-7-[(3S)-3-methylpiperazin-1-yl]-4H-pyrido[1,2-a]pyrimidin-4-one], the melting point was 152 to 155 °C. Moreover, the EC (1.5-fold increase) in data set [1] lay in the range of 1 to 3 µM. For the same compound, in data set [2], the “EC1.5x for Smn protein expression” value is “** (an EC1.5× between >1 μM and ≤3 μM is indicated by two stars (**))”; the “maximum fold (Fold) increase” value was “***** (a fold increase >1.65 is indicated by five stars (*****))”.
As to `COc1ccc(-c2cc(=O)n3cc(N4C[C@@H](O)[C@H](N(C)C)C4)ccc3n2)cc1F` [Compound 206, 7-[(3R,4R)-3-(dimethylamino)-4-hydroxypyrrolidin-1-yl]-2-(3-fluoro-4-methoxyphenyl)-4H-pyrido[1,2-a]pyrimidin-4-one], the melting point is 223 to 228 °C. In addition, in data set [1], the EC (1.5-fold increase) fell in the range of 1 to 3 µM. Moreover, the “maximum fold (Fold) increase” value in data set [2] is “** (a fold increase between >1.2 and ≤1.35 is indicated by two stars (**))”.
`CCc1nc(C)cn2nc(-c3cc(=O)n4cc(N5CCN(C6CCC6)CC5)ccc4n3)cc12` [Compound 621, 7-(4-cyclobutylpiperazin-1-yl)-2-(4-ethyl-6-methylpyrazolo[1,5-a]pyrazin-2-yl)-4H-pyrido[1,2-a]pyrimidin-4-one] displayed a melting point of 275 to 278 °C. The EC (1.5-fold increase) in data set [1] lay in the range of 0.3 to 1 µM. For the same compound, in data set [2], the “EC1.5x for Smn protein expression” value is “**** (an EC1.5x≤0.3 μM is indicated by four stars (****))” and the “maximum fold (Fold) increase” value was “***** (a fold increase >1.65 is indicated by five stars (*****))”.
The compound `CCN(CC)C[C@@H]1CCN(c2ccc3nc(-c4cc5c(C)nc(C)cn5n4)cc(=O)n3c2)C1` [Compound 778, 7-{(3S)-3-[(diethylamino)methyl]pyrrolidin-1-yl}-2-(4,6-dimethylpyrazolo[1,5-a]pyrazin-2-yl)-4H-pyrido[1,2-a]pyrimidin-4-one] displayed a melting point of 194 to 196 °C. In addition, the EC (1.5-fold increase) in data set [1] is below 0.1 µM. For the same compound, in data set [2], the “EC1.5x for Smn protein expression” value was “*** (an EC1.5× between >0.3 μM and ≤1 μM is indicated by three stars (***))”; the “maximum fold (Fold) increase” value is given as “***** (a fold increase >1.65 is indicated by five stars (*****))”.
In the case of `Cc1cn2cc(-c3ccc4nc(C5=CCN(C)CC5)cc(=O)n4c3)cc(F)c2n1` [Compound 411, 7-(8-fluoro-2-methylimidazo[1,2-a]pyridin-6-yl)-2-(1-methyl-1,2,3,6-tetrahydropyridin-4-yl)-4H-pyrido[1,2-a]pyrimidin-4-one], the melting point lay within 218 to 222 °C. Moreover, the EC (1.5-fold increase) in data set [1] is below 0.1 µM. Further, the “maximum fold (Fold) increase” value in data set [2] is “*** (a fold increase between >1.35 and ≤1.5 is indicated by three stars (***))”.
